Results as given in patent publication US10047081B2, “BACE1 inhibitors” (Hoffmann-La Roche Inc., priority 2015, dated 2018).
Where two headings read alike, the source gives them in different places.

Columns and labels:
[1] = target: T1, BACE1 (Homo sapiens, UniProt P56817); assay: Cellular Aβ-lowering assay (Abeta 40 AlphaLISA, HEK293 APP cells); format: cell-based; details: 18-20 hrs incubation, Aβ 40 in culture supernatant, read-out: BACE1 cell act. Aβ40 IC50
T1 construct: endogenous in cells; host or cells: HEK293 APP cells
T1 sequence (P56817 46-501): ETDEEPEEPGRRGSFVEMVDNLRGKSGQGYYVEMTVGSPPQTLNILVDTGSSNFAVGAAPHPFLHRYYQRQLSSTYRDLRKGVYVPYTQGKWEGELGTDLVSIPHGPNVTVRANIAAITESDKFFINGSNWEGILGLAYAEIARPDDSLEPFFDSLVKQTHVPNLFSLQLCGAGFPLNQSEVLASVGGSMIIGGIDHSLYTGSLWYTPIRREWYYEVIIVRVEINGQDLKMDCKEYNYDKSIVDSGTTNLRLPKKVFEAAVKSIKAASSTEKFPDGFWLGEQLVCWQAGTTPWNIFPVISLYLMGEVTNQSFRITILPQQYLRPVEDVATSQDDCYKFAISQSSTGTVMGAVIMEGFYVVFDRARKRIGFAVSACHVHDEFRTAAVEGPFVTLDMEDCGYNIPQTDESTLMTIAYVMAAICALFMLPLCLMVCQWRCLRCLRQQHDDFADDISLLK
Protocol: Cellular Aβ-Lowering Assay:
The Abeta 40 AlphaLISA Assay can be used. The HEK293 APP cells were seeded in 96 well Microtiter plates in cell culture medium (Iscove's, plus 10% (v/v) fetal bovine serum, penicillin/streptomycin) to about 80% confluency and the compounds were added at a 3× concentration in ⅓ volume of culture medium (final DMSO concentration was kept at 1% v/v). After 18-20 hrs incubation at 37° C. and 5% CO2 in a humidified incubator, the culture supernatants were harvested for the determination of Aβ 40 concentrations using Perkin-Elmer Human Amyloid beta 1-40 (high specificity) Kit (Cat#AL275C).
In a Perkin-Elmer White Optiplate-384 (Cat#6007290), 2 ul culture supernatants were combined with 2 μl of a 10× AlphaLISA Anti-hAβAcceptor beads + Biotinylated Antibody Anti-Aβ 1-40 Mix (50 μg/mL/5 nM). After 1 hour room temperature incubation, 16 μl of a 1.25× preparation of Streptavidin (SA) Donor beads (25 μg/mL) were added and incubated for 30 minutes in the Dark. Light Emission at 615 nm was then recorded using EnVision-Alpha Reader. Levels of Aβ 40 in the culture supernatants were calculated as percentage of maximum signal (cells treated with 1% DMSO without inhibitor). The IC50 values were calculated using the Excel XLfit software.

[2] = GSH human, in vitro adduct formation; format: in vitro ADME; parameters: key: NF = in vitro no significant adduct formation relative to control; details: in vitro adduct formation relative to control
[3] = target: T2, recombinant human cathepsin E (Homo sapiens, UniProt P14091); assay: Cathepsin E fluorescent substrate kinetic assay; format: biochemical; details: pH 4.5, substrate MR121-CKLVFFAEDW
T2 construct: purchased R&D Systems
T2 sequence (P14091 54-396): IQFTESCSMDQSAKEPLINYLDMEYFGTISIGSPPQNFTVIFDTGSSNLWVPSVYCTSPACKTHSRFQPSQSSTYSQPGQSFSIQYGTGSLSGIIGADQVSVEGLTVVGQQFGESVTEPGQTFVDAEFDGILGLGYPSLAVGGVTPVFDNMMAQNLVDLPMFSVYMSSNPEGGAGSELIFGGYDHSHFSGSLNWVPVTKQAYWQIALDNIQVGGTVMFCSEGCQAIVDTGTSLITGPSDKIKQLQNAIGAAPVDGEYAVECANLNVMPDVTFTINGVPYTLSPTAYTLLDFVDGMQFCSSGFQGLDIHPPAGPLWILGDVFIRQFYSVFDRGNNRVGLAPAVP
Description: (§1) Cathepsin D and Cathepsin E Fluorescent Substrate Kinetic Assays
(§2) The MR121 fluorescence assays described below are based on the fact that MR121 forms a non-fluorescent ground state complex with tryptophan. In solution this formation occurs at millimolar concentrations of tryptophan. The mechanism can be used to design a generic biochemical assay for proteases. A substrate peptide is labeled at the N-terminus with tryptophan and at the C-terminus with the fluorophore MR121 (for cathepsin D the 10 amino acid peptide WTSVLMAAPC-MR121 was used; for cathepsin E, MR121-CKLVFFAEDW was used). In absence of protease activity, the substrates remain intact and the MR121 fluorescence is reduced by the high local Trp-concentration. If the substrates are cleaved by the enzymes the MR121 fluorescence is recovered.
(§3) The fluorescent substrate cathepsin D and cathepsin E kinetic assays were performed at room temperature in 384-well microtiter plates (black with clear flat bottom, non-binding surface plates from Corning) in a final volume of 51 μl. The test compounds were serially diluted in DMSO (15 concentrations, ⅓ dilution steps) and 1 μl of diluted compounds were mixed for 10 min with 40 μl of cathepsin D (from human liver, Calbiochem) diluted in assay buffer (100 mM sodium acetate, 0.05% BSA, pH 5.5; final concentration:200 nM) or with 40 μl of recombinant human cathepsin E (R&D Systems) diluted in assay buffer (100 mM sodium acetate, 0.05% BSA, pH 4.5; final concentration:0.01 nM). After addition of 10 μl of the cathepsin D substrate WTSVLMAAPC-MR121 diluted in cathepsin D assay buffer (final concentration:300 nM) or 10 μl of the cathepsin E substrate MR121-CKLVFFAEDW diluted in cathepsin E assay buffer (final concentration:300 nM), the plates were strongly shaken for 2 minutes. The enzymatic reaction was followed in a plate: vision reader (Perkin Elmer) (excitation wavelength:630 nm; emission:695 nm) for at least 30 minutes in a kinetic measurement detecting an increase of MR121 fluorescence during the reaction time. The slope in the linear range of the kinetic was calculated and the IC50 of the test compounds were determined using a four parameter equation for curve fitting.

[4] = target: T3, cathepsin D (from human liver) (Homo sapiens, UniProt P07339); assay: Cathepsin D fluorescent substrate kinetic assay; format: biochemical; details: pH 5.5, substrate WTSVLMAAPC-MR121
T3 construct: cathepsin D (from human liver, Calbiochem) diluted in assay buffer; purchased Calbiochem; host or cells: human liver
T3 sequence (P07339 65-162 limits assumed): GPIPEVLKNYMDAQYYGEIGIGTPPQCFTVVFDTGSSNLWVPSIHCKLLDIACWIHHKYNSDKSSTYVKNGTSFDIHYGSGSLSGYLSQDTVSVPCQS
T3 sequence (P07339 169-412 limits assumed): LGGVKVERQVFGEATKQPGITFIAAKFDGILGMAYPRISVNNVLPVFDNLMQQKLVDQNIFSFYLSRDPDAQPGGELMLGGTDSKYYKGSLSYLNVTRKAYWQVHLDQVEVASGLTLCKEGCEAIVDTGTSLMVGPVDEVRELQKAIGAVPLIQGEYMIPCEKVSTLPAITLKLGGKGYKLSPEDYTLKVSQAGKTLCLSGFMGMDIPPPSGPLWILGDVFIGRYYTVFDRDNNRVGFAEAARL
Description: as §1, §2, §3

[5] = target: T4, CYP2C9 (Homo sapiens, UniProt P11712); assay: CYP inhibition assay, human liver microsomes; format: in vitro ADME
T4 construct: 0.2 mg/ml pooled human liver microsomes; from tissue; host or cells: pooled human liver microsomes
T4 sequence (P11712 whole entry): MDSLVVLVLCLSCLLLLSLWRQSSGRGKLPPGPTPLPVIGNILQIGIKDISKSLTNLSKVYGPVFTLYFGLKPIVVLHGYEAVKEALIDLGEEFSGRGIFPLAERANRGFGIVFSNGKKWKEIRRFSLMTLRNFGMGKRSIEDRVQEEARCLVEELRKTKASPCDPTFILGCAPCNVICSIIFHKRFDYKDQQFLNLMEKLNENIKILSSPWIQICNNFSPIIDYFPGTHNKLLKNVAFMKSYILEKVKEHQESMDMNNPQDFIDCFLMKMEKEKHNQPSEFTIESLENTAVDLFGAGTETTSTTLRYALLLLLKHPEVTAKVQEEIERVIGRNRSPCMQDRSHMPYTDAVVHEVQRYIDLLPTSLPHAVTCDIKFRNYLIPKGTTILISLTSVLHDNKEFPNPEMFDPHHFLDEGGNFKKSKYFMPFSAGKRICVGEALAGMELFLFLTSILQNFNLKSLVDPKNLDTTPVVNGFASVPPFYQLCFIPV
Protocol: (§4) Inhibition of cytochromes P450 (CYPs) 2C9, 2D6 and 3A4 was assessed using human liver microsomes and CYP-selective substrate metabolism reactions. 50 μl incubations were made up containing (finally) 0.2 mg/ml pooled human liver microsomes, 5 μM substrate (diclofenac for CYP2C9 [4′hydroxylase], dextromethorphan for CYP2D6 [O-demethylase] or midazolam for CYP3A4 [1′hydroxylase]), 0.25 μL DMSO containing test inhibitor and NADPH regenerating system. Test inhibitor concentrations of 50, 16.7, 5.6, 1.9, 0.6 and 0.2 μM were assessed in singlicate. Incubations were prewarmed to 37° C. for 10 minutes before initiation by addition of NADPH regenerating system. Incubations were quenched after 5 minutes (20 minutes for dextromethorphan) by addition of 50 μl cold acetonitrile containing 20 ng/ml 4-OH-diclofenac-13C6, 20 ng/mL dextrorphan-D3 and 20 ng/mL 1-OH-midazolam-D4. Quenched incubates were stored at −20° C. for at least 1 hour before centrifugation (20,000× g, 20 minutes). Supernatants were removed and diluted 1:1 with water prior to analysis using a RapidFire sample injector system and API4000 mass spectrometer. Peak areas for substrate, metabolite and stable-labelled metabolite standard were determined using MS/MS. The peak area ratios between the metabolite generated by the enzymatic reaction and the internal standard were used in subsequent calculations. The percentage of (DMSO) control activity was calculated for each incubate and IC50 values estimated by non-linear regression. Sulfaphenazole, quinidine or ketoconazole were tested in each CYP2C9, CYP2D6 or CYP3A4 inhibition experiment, respectively, to ensure assay sensitivity and reproducibility. (Validated assays for human cytochrome P450 activities, R. L. Walsky and R. S. Obach, Drug Metabolism and Disposition 32: 647-660, 2004. and S. Fowler and H. Zhang, The AAPS Journal, Vol. 10, No. 2, 410-424, 2008)

[6] = target: T5, CYP2D6 (Homo sapiens, UniProt P10635); assay: CYP inhibition assay, human liver microsomes; format: in vitro ADME
T5 construct: 0.2 mg/ml pooled human liver microsomes; from tissue; host or cells: pooled human liver microsomes
T5 sequence (P10635 whole entry): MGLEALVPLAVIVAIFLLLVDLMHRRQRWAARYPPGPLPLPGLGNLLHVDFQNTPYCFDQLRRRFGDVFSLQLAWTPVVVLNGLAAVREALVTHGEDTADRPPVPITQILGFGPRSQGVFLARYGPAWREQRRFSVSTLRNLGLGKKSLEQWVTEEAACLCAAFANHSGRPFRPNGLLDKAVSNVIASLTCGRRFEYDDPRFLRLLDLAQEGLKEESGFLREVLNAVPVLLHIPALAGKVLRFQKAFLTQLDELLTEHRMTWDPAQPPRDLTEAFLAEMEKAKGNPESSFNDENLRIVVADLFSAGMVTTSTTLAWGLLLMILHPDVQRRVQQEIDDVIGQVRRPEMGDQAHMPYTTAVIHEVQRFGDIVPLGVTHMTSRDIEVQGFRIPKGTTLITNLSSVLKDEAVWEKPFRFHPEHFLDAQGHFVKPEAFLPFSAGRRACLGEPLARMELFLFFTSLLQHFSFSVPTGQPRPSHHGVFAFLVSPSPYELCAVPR
Protocol: as §4

[7] = target: T6, CYP3A4 (Homo sapiens, UniProt P08684); assay: CYP inhibition assay, human liver microsomes; format: in vitro ADME
T6 construct: 0.2 mg/ml pooled human liver microsomes; from tissue; host or cells: pooled human liver microsomes
T6 sequence (P08684 whole entry): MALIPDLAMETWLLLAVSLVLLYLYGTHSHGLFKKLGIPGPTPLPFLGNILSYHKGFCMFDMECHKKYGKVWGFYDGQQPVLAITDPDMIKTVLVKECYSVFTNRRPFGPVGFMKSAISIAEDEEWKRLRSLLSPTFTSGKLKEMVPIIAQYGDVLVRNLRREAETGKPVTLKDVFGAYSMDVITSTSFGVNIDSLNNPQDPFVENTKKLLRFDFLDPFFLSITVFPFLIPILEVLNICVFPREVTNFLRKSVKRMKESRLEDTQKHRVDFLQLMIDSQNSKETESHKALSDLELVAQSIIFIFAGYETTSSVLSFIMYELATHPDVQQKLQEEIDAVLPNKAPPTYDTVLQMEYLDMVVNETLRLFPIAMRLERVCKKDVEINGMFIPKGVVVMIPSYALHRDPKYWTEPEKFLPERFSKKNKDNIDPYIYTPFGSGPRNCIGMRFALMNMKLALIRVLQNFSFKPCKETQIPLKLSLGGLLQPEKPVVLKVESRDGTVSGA
Protocol: as §4

[8] = human liver microsomes, substrate diclofenac, read-out: CYP IC50 2C9
[9] = human liver microsomes, substrate dextromethorphan, read-out: CYP IC50 2D6

IC50 [1] [nM]	GSH human [2]	IC50 [3] [µM]	IC50 [4] [µM]	IC50 [5, 8] [µM]	IC50 [6, 9] [µM]	IC50 ([7]; human liver microsomes, substrate midazolam, read-out: CYP IC50 3A4) [µM]	SMILES	IC50 [5] [µM]	IC50 [6] [µM]	IC50 [7] [µM]
95	NF	139	75	> 10	> 10	–	CN=[S@]1(=O)C[C@@](CF)(c2cc(-c3cc(-c4ncc(Cl)cn4)no3)ccc2F)N=C(N)C1(C)C [Example 1, (1S,3S)-5-amino-3-(5-(3-(5-chloropyrimidin-2-yl)isoxazol-5-yl)-2-fluorophenyl)-3-(fluoromethyl)-6,6-dimethyl-1-(methylimino)-3,6-dihydro-2H-1,4-thiazine 1-oxide 2,2,2-trifluoroacetate]	–	–	–
8	–	56	45	> 10	> 10	> 10	COc1cnc(-c2cc(-c3ccc(F)c([C@]4(C)C[S@@](=N)(=O)C(C)(C)C(N)=N4)c3)on2)cn1 [Example 41, (1R,3R)-5-amino-3-(2-fluoro-5-(3-(5-methoxypyrazin-2-yl)isoxazol-5-yl)phenyl)-1-imino-3,6,6-trimethyl-3,6-dihydro-2H-1,4-thiazine 1-oxide]	–	–	–

SMILES	IC50 [1] [nM]	GSH human [2]	IC50 [3] [µM]	IC50 [4] [µM]	IC50 [5, 8] [µM]	IC50 [6, 9] [µM]	IC50 ([7]; human liver microsomes, substrate midazolam, read-out: CYP IC50 3A4) [µM]	IC50 [5] [µM]	IC50 [6] [µM]	IC50 [7] [µM]
CN=[S@@]1(=O)C[C@@](C)(c2cc(-c3cc(-c4ncc(Cl)cn4)no3)ccc2F)N=C(N)C12CCCC2 [Example 28, (6R,8R)-10-amino-8-(5-(3-(5-chloropyrimidin-2-yl)isoxazol-5-yl)-2-fluorophenyl)-8-methyl-6-(methylimino)-6-thia-9-azaspiro[4.5]dec-9-ene 6-oxide 2,2,2-trifluoroacetate]	7	–	7	16	–	–	–	> 10	> 10	> 10
